From US20080255186A1, “Pyrazolo[3,4-B]Pyridine Compound, and Its Use as a Pde4 Inhibitor” (priority 2005, published 2008)

Target: T1, PDE6 (from bovine retina) (Bos taurus, UniProt P11541+P23439)
T1 construct: PDE6 can be purified from bovine retina; from tissue; host or cells: bovine retina
T1 sequence (P11541 2-856 limits assumed): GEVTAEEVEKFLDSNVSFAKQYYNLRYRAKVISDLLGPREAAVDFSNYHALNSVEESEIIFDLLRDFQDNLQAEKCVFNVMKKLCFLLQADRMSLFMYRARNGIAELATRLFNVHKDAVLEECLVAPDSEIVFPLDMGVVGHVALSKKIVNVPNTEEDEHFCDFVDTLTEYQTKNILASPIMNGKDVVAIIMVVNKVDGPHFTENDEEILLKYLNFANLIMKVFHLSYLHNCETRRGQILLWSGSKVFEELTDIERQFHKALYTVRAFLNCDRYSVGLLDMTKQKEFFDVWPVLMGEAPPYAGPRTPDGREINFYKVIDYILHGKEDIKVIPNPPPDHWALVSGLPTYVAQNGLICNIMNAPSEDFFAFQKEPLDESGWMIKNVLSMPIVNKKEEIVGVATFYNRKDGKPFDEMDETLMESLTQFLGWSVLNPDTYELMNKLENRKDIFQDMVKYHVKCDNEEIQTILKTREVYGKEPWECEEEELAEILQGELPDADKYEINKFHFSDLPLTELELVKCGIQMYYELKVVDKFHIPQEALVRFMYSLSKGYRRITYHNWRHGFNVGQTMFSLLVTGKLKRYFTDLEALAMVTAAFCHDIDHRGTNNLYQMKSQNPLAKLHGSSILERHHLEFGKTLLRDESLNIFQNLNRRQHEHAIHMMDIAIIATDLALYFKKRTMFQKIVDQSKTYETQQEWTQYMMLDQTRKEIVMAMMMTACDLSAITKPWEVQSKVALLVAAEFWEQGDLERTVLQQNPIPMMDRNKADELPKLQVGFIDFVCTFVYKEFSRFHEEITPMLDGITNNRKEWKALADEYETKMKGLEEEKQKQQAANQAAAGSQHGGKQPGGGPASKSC
T1 sequence (P23439 2-850 limits assumed): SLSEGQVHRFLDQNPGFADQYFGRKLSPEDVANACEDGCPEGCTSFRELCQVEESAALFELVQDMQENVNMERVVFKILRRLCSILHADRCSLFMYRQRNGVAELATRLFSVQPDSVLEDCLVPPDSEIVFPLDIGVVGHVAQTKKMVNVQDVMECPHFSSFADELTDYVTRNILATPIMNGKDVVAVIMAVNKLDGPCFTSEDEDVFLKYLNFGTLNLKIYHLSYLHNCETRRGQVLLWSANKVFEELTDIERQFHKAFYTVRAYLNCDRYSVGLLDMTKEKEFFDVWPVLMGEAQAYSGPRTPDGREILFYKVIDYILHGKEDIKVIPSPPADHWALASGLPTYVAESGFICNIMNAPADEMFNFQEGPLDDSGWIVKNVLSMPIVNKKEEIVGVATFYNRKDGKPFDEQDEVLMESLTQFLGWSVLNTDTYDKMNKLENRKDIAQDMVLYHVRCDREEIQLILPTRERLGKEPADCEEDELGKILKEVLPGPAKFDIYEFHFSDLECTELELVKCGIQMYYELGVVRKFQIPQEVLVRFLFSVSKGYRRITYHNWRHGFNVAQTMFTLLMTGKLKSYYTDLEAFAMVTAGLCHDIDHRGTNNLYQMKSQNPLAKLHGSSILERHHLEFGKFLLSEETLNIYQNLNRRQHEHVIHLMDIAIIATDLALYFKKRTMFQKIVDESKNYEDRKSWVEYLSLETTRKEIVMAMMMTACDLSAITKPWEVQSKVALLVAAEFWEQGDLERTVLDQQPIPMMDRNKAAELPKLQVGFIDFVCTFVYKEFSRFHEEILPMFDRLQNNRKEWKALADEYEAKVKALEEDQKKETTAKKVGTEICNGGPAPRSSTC
Experiment: PDE6 inhibition (FP or SPA general type of assay)
Format: biochemical
Conditions: in the particular assays used
Text: PDE6 can be purified from bovine retina as described by: P. Catty and P. Deterre, “Activation and solubilization of the retinal cGMP-specific phosphodiesterase by limited proteolysis”, Eur. J. Biochem., 1991, 199, 263-269; A. Tar et al. “Purification of bovine retinal cGMP phosphodiesterase”, Methods in Enzymology, 1994, 238, 3-12; and/or D. Srivastava et al. “Effects of magnesium on cyclic GMP hydrolysis by the bovine retinal rod cyclic GMP phosphodiesterase”, Biochem. J., 1995, 308, 653-658.
The ability of compounds to inhibit catalytic activity at PDE4B or 4D (human recombinant), PDE3 (from bovine aorta), PDE5 (human recombinant) or PDE6 (from bovine retina) can optionally be determined by Scintillation Proximity Assay (SPA) in a 96-well format.
Test compounds (as a solution in DMSO, suitably about 2 microlitre (ul) volume of DMSO solution) are preincubated at ambient temperature (room temperature, e.g. 19-23° C.) in Wallac Isoplates (code 1450-514) with PDE enzyme in 50 mM Tris-HCl buffer pH 7.5, 8.3 mM MgCl2, 1.7 mM EGTA, 0.05% (w/v) bovine serum albumin for 10-30 minutes (usually 30 minutes). […] Bound radioactive product is measured using a WALLAC TRILUX 1450 Microbeta scintillation counter. […] Curves are analysed using ActivityBase and XLfit (ID Business Solutions Limited, 2 Ocean Court, Surrey Research Park, Guildford, Surrey GU2 7QB, United Kingdom). […]

With `CCc1nc2c(cnn2CC)c(NC2CCOCC2)c1CNC(=O)c1cc(C)no1` [Example 1, N-{[1,6-diethyl-4-(tetrahydro-2H-pyran-4-ylamino)-1H-pyrazolo[3,4-b]pyridin-5-yl]methyl}-3-methyl-5-isoxazolecarboxamide] the “PDE4B pIC50 compared with PDE6 pIC50 (selectivity)” value was “inhibits PDE4B more strongly than it inhibits PDE3, PDE5 and PDE6”.
